Values of other authors in patent US12173009B2, “Diamine derivatives as inhibitors of leukotriene A4 hydrolase” (CELLTAXIS, LLC, priority 2005, dated 2024).

Legend:
spontaneous colitis = conditions: eight weeks of treatment; cotton top tamarins
LTA4-h [1] = target: T1, LTA4-h (Rattus norvegicus, UniProt P30349); conditions: oral administration; rat peritoneum in vivo
T1 construct: host or cells: rat peritoneum (endogenous enzyme)
T1 sequence (P30349 1-611): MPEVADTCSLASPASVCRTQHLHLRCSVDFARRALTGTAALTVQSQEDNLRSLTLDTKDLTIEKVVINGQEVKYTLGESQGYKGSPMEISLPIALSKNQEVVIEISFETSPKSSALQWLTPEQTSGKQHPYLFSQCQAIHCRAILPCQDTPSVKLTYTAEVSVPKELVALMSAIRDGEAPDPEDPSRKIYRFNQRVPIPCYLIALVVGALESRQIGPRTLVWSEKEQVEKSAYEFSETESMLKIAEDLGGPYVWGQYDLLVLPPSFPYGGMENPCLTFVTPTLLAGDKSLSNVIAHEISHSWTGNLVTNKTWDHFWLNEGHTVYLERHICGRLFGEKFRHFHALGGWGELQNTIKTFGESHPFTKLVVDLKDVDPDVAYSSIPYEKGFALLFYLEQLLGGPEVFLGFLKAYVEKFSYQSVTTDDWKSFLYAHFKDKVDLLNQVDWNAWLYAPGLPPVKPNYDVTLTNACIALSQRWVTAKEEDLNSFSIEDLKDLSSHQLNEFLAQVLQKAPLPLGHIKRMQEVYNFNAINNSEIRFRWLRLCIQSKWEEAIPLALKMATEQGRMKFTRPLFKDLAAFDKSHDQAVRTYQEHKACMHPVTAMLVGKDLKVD

LTA4-h [2] = target: T2, LTA4-h (Mus musculus, UniProt P24527); conditions: oral administration; mouse blood ex vivo
T2 construct: host or cells: mouse blood (endogenous enzyme)
T2 sequence (P24527 1-611): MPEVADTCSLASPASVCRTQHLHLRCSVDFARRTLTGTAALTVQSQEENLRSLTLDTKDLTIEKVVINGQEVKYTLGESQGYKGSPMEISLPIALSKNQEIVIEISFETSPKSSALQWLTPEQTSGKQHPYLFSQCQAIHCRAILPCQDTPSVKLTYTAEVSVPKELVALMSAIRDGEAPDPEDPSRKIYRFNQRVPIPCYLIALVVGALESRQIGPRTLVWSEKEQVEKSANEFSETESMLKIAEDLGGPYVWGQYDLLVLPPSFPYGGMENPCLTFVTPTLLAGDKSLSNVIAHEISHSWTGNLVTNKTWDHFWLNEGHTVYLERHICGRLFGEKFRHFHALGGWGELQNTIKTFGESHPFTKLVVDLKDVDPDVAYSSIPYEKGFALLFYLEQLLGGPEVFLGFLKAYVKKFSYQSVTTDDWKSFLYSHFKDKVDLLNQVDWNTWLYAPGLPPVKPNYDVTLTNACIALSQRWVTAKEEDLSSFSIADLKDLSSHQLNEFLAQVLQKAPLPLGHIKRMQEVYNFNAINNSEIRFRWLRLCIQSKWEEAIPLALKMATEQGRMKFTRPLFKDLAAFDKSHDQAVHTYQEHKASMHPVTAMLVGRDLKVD

Human BLT2 = target: T3, Human BLT2 (Homo sapiens, UniProt Q9NPC1); conditions: Human BLT2 versus BLT1
T3 sequence (Q9NPC1 1-358): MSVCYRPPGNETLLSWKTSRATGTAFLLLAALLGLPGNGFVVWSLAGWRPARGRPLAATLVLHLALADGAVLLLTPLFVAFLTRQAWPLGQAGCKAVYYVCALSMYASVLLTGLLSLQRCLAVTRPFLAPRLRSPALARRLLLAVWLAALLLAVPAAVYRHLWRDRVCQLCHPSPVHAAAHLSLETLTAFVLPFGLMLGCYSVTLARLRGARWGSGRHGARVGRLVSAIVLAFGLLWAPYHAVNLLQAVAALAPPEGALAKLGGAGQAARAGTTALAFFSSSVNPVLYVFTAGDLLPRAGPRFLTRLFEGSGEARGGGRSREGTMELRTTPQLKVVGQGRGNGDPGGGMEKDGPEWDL

[3] = tested on: lower affinity LTB4 receptors on neutrophils; conditions: additional lower affinity receptors on neutrophils
BLT1 = conditions: Human BLT1 and its mouse, rat and guinea pig orthologues

CN(CCCOc1ccc(Cc2ccccc2)cc1)CCC(=O)O.Cl [SC57461]
colitis symptoms (spontaneous colitis): significantly improved colitis symptoms
ionophore-induced LTB4 production (LTA4-h [1]): caused inhibition
ionophore-induced LTB4 production (LTA4-h [2]): caused inhibition

CCCCC/C=C\C[C@@H](O)/C=C/C=C/C=C\[C@@H](O)CCCC(=O)O [LTB4, Leukotriene B4]
lower affinity of BLT2 for LTB4 than BLT1 (Human BLT2): 20 fold
Kd [3]: > 60 nM
Kd (BLT1): 0.1 to 0.7 nM
